According to PubChem BioAssay AID2060901 (Molecular Pharmacology Branch, DTP, NCI, 2025):

System: 422866-222-R5-J1-PDC complex spheroids viability
Assay: Anticancer human tumor 422866-222-R5-J1-PDC patient-derived pancreatic adenocarcinoma cell line growth inhibition [RAS]
Details: for IC50: curve of first compound; for viability, T/C: stronger effect = lower value; active = viability on the fitted dose curve at most 10% of control; inactive = the rest
Summary of the method: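 Tumour cells grown as complex spheroids with HUVEC endothelial cells and mesenchymal stem cells, treated with RAS pathway inhibitor combinations. Each agent spans half-log steps from near clinical Cmax, or 10 microM where Cmax is unknown.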

[1] = second compound 0.00316 µM, first compound 0.0316 µM
[2] = second compound 0.00316 µM, first compound 0.1 µM
[3] = second compound 0.00316 µM, first compound 0.316 µM
[4] = second compound 0.00316 µM, first compound 1 µM
[5] = second compound 0.00316 µM, first compound 3.16 µM
[6] = second compound 0.00316 µM, first compound 10 µM
[7] = second compound 0.01 µM, first compound 0.0316 µM
[8] = second compound 0.01 µM, first compound 0.1 µM
[9] = second compound 0.01 µM, first compound 0.316 µM
[10] = second compound 0.01 µM, first compound 1 µM
[11] = second compound 0.01 µM, first compound 3.16 µM
[12] = second compound 0.01 µM, first compound 10 µM
[13] = second compound 0.0316 µM, first compound 0.0316 µM
[14] = second compound 0.0316 µM, first compound 0.1 µM
[15] = second compound 0.0316 µM, first compound 0.316 µM
[16] = second compound 0.0316 µM, first compound 1 µM
[17] = second compound 0.0316 µM, first compound 3.16 µM
[18] = second compound 0.0316 µM, first compound 10 µM
[19] = second compound 0.1 µM, first compound 0.0316 µM
[20] = second compound 0.1 µM, first compound 0.1 µM
[21] = second compound 0.1 µM, first compound 0.316 µM
[22] = second compound 0.1 µM, first compound 1 µM
[23] = second compound 0.1 µM, first compound 3.16 µM
[24] = second compound 0.1 µM, first compound 10 µM
[25] = second compound 0.316 µM, first compound 0.0316 µM
[26] = second compound 0.316 µM, first compound 0.1 µM
[27] = second compound 0.316 µM, first compound 0.316 µM
[28] = second compound 0.316 µM, first compound 1 µM
[29] = second compound 0.316 µM, first compound 3.16 µM
[30] = second compound 0.316 µM, first compound 10 µM
[31] = second compound 1 µM, first compound 0.0316 µM
[32] = second compound 1 µM, first compound 0.1 µM
[33] = second compound 1 µM, first compound 0.316 µM
[34] = second compound 1 µM, first compound 1 µM
[35] = second compound 1 µM, first compound 3.16 µM
[36] = second compound 1 µM, first compound 10 µM
[37] = second compound 0.00316 µM, first compound 0.00316 µM
[38] = second compound 0.00316 µM, first compound 0.01 µM
[39] = second compound 0.01 µM, first compound 0.00316 µM
[40] = second compound 0.01 µM, first compound 0.01 µM
[41] = second compound 0.0316 µM, first compound 0.00316 µM
[42] = second compound 0.0316 µM, first compound 0.01 µM
[43] = second compound 0.1 µM, first compound 0.00316 µM
[44] = second compound 0.1 µM, first compound 0.01 µM
[45] = second compound 0.316 µM, first compound 0.00316 µM
[46] = second compound 0.316 µM, first compound 0.01 µM
[47] = second compound 1 µM, first compound 0.00316 µM
[48] = second compound 1 µM, first compound 0.01 µM
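Also: spheroids exposed to compounds for 7 days.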
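For viability, T/C in this document: 100% = DMSO vehicle control viability.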

CC(C)NCC(C(=O)N1CCN(c2ncnc3c2C(C)CC3O)CC1)c1ccc(Cl)cc1 (stereo not given) + C=CC(=O)N1CCN(c2nc(OCC3CCCN3C)nc3c(F)c(-c4nc(N)cc(C)c4C(F)(F)F)c(Cl)cc23)C(C)C1
< 31.6 nM: IC50 (second compound 0.00316 µM) | IC50 (second compound 0.01 µM) | IC50 (second compound 0.0316 µM) | IC50 (second compound 0.1 µM) | IC50 (second compound 0.316 µM) | IC50 (second compound 1 µM)
inactive: viability, T/C [1] 27.2% | viability, T/C [2] 32.1% | viability, T/C [3] 19.7% | viability, T/C [4] 17% | viability, T/C [5] 16.7% | viability, T/C [6] 16.7% | viability, T/C [7] 23.3% | viability, T/C [8] 24.8% | viability, T/C [9] 17.9% | viability, T/C [10] 12.2% | viability, T/C [11] 12.6% | viability, T/C [12] 13.3% | viability, T/C [13] 27.9% | viability, T/C [14] 22% | viability, T/C [15] 14.4% | viability, T/C [16] 14.9% | viability, T/C [17] 14.2% | viability, T/C [18] 14.3% | viability, T/C [19] 21.6% | viability, T/C [20] 19.2% | viability, T/C [21] 15.2% | viability, T/C [22] 12% | viability, T/C [23] 13% | viability, T/C [24] 12.8% | viability, T/C [25] 24.1% | viability, T/C [26] 16.4% | viability, T/C [27] 14.8% | viability, T/C [28] 13.6% | viability, T/C [29] 12.7% | viability, T/C [30] 16.6% | viability, T/C [31] 23.6% | viability, T/C [32] 15.2% | viability, T/C [33] 16.7% | viability, T/C [34] 12.5% | viability, T/C [35] 13.9% | viability, T/C [36] 12.6%

CC(C)n1nc(-c2ccc3oc(N)nc3c2)c2c(N)ncnc21 + C=CC(=O)N1CCN(c2nc(OCC3CCCN3C)nc3c(F)c(-c4nc(N)cc(C)c4C(F)(F)F)c(Cl)cc23)C(C)C1
inactive: viability, T/C (second compound 0.00316 µM, first compound 0.000316 µM) 34.9% | viability, T/C (second compound 0.00316 µM, first compound 0.001 µM) 35.1% | viability, T/C [37] 30.5% | viability, T/C [38] 23.2% | viability, T/C [1] 18.3% | viability, T/C [2] 14.8% | viability, T/C (second compound 0.01 µM, first compound 0.000316 µM) 30.3% | viability, T/C (second compound 0.01 µM, first compound 0.001 µM) 28.9% | viability, T/C [39] 22.9% | viability, T/C [40] 19.9% | viability, T/C [7] 14.3% | viability, T/C [8] 14.1% | viability, T/C (second compound 0.0316 µM, first compound 0.000316 µM) 29.9% | viability, T/C (second compound 0.0316 µM, first compound 0.001 µM) 26.5% | viability, T/C [41] 23.4% | viability, T/C [42] 18.2% | viability, T/C [13] 14% | viability, T/C [14] 12.3% | viability, T/C (second compound 0.1 µM, first compound 0.000316 µM) 25.5% | viability, T/C (second compound 0.1 µM, first compound 0.001 µM) 22.9% | viability, T/C [43] 18.1% | viability, T/C [44] 18.3% | viability, T/C [19] 16.8% | viability, T/C [20] 11.3% | viability, T/C (second compound 0.316 µM, first compound 0.000316 µM) 25% | viability, T/C (second compound 0.316 µM, first compound 0.001 µM) 20.9% | viability, T/C [45] 20.6% | viability, T/C [46] 18.1% | viability, T/C [25] 13.6% | viability, T/C [26] 10.5% | viability, T/C (second compound 1 µM, first compound 0.000316 µM) 21.3% | viability, T/C (second compound 1 µM, first compound 0.001 µM) 20.2% | viability, T/C [47] 24.6% | viability, T/C [48] 17.2% | viability, T/C [31] 17.3% | viability, T/C [32] 13.8%
< 0.316 nM: IC50 (second compound 0.00316 µM) | IC50 (second compound 0.01 µM) | IC50 (second compound 0.0316 µM) | IC50 (second compound 0.1 µM) | IC50 (second compound 0.316 µM) | IC50 (second compound 1 µM)

CC(Nc1ccc2c(c1)OCCn1cc(N3C(=O)OCC3C(F)F)nc1-2)C(N)=O (stereo not given) + C=CC(=O)N1CCN(c2nc(OCC3CCCN3C)nc3c(F)c(-c4nc(N)cc(C)c4C(F)(F)F)c(Cl)cc23)C(C)C1
< 31.6 nM: IC50 (second compound 0.00316 µM) | IC50 (second compound 0.01 µM) | IC50 (second compound 0.0316 µM) | IC50 (second compound 0.1 µM) | IC50 (second compound 0.316 µM) | IC50 (second compound 1 µM)
active: viability, T/C [5] 7.97% | viability, T/C [6] 7.01% | viability, T/C [10] 6.65% | viability, T/C [11] 7.17% | viability, T/C [12] 4.82% | viability, T/C [15] 9.64% | viability, T/C [16] 7.15% | viability, T/C [17] 5.78% | viability, T/C [18] 4.99% | viability, T/C [21] 9.29% | viability, T/C [22] 8.93% | viability, T/C [23] 5.79% | viability, T/C [24] 5.64% | viability, T/C [27] 9.82% | viability, T/C [28] 6.95% | viability, T/C [29] 6.91% | viability, T/C [30] 7.16% | viability, T/C [34] 7.52% | viability, T/C [35] 6.84% | viability, T/C [36] 7.05%
inactive: viability, T/C [1] 20.8% | viability, T/C [2] 19.9% | viability, T/C [3] 12.6% | viability, T/C [4] 11% | viability, T/C [7] 19.1% | viability, T/C [8] 18% | viability, T/C [9] 13.5% | viability, T/C [13] 24.5% | viability, T/C [14] 14.3% | viability, T/C [19] 14.6% | viability, T/C [20] 10.9% | viability, T/C [25] 18.3% | viability, T/C [26] 11% | viability, T/C [31] 16.5% | viability, T/C [32] 15.8% | viability, T/C [33] 9.93%

C[C@@H](NC(=O)c1ncnc(N)c1Cl)c1ncc(C(=O)Nc2cc(C(F)(F)F)c(Cl)cn2)s1 + C=CC(=O)N1CCN(c2nc(OCC3CCCN3C)nc3c(F)c(-c4nc(N)cc(C)c4C(F)(F)F)c(Cl)cc23)C(C)C1
inactive: viability, T/C [1] 31.7% | viability, T/C [2] 47.2% | viability, T/C [3] 31.7% | viability, T/C [4] 29% | viability, T/C [5] 32% | viability, T/C [6] 30.6% | viability, T/C [7] 41.5% | viability, T/C [8] 32.2% | viability, T/C [9] 33.3% | viability, T/C [10] 29.2% | viability, T/C [11] 30% | viability, T/C [12] 28.9% | viability, T/C [13] 30.8% | viability, T/C [14] 30.8% | viability, T/C [15] 25.1% | viability, T/C [16] 27.4% | viability, T/C [17] 29.5% | viability, T/C [18] 26.7% | viability, T/C [19] 30.5% | viability, T/C [20] 25% | viability, T/C [21] 27.9% | viability, T/C [22] 30.3% | viability, T/C [23] 26.7% | viability, T/C [24] 30.5% | viability, T/C [25] 28% | viability, T/C [26] 24.1% | viability, T/C [27] 27.6% | viability, T/C [28] 23.1% | viability, T/C [29] 28.6% | viability, T/C [30] 31.8% | viability, T/C [31] 27.1% | viability, T/C [32] 29.4% | viability, T/C [33] 27.2% | viability, T/C [34] 30% | viability, T/C [35] 32.1% | viability, T/C [36] 29.4%
< 31.6 nM: IC50 (second compound 0.00316 µM) | IC50 (second compound 0.01 µM) | IC50 (second compound 0.0316 µM) | IC50 (second compound 0.1 µM) | IC50 (second compound 0.316 µM) | IC50 (second compound 1 µM)

O=C(c1ccc(F)c(F)c1Nc1ccc(I)cc1F)N1CC(O)([C@@H]2CCCCN2)C1 + C=CC(=O)N1CCN(c2nc(OCC3CCCN3C)nc3c(F)c(-c4nc(N)cc(C)c4C(F)(F)F)c(Cl)cc23)C(C)C1
< 3.16 nM: IC50 (second compound 0.00316 µM) | IC50 (second compound 0.01 µM) | IC50 (second compound 0.0316 µM) | IC50 (second compound 0.1 µM) | IC50 (second compound 0.316 µM) | IC50 (second compound 1 µM)
inactive: viability, T/C [37] 27.3% | viability, T/C [38] 29% | viability, T/C [1] 20.7% | viability, T/C [2] 18.1% | viability, T/C [3] 16.6% | viability, T/C [4] 17.1% | viability, T/C [39] 39.6% | viability, T/C [40] 22.1% | viability, T/C [7] 21.8% | viability, T/C [8] 15.2% | viability, T/C [9] 17% | viability, T/C [10] 12.9% | viability, T/C [41] 28.7% | viability, T/C [42] 24.2% | viability, T/C [13] 18.3% | viability, T/C [14] 14.5% | viability, T/C [15] 17.8% | viability, T/C [16] 14.6% | viability, T/C [43] 22.3% | viability, T/C [44] 18.9% | viability, T/C [19] 17.4% | viability, T/C [20] 13.8% | viability, T/C [21] 14.9% | viability, T/C [22] 14.3% | viability, T/C [45] 18% | viability, T/C [46] 18.2% | viability, T/C [25] 20.1% | viability, T/C [26] 12.6% | viability, T/C [27] 16.4% | viability, T/C [28] 14.1% | viability, T/C [47] 19.7% | viability, T/C [48] 17.7% | viability, T/C [31] 18.5% | viability, T/C [32] 15% | viability, T/C [33] 14.8% | viability, T/C [34] 16.1%
